The values that follow come from US20180092908A1, “SMALL MOLECULE OXIDIZERS OF PDI AND THEIR USE” (THE TRUSTEES OF COLUMBIA UNIVERSITY IN THE CITY OF NEW YORK, priority 2015, published 2018).

In data set [1] the target is T1, human catalytic PDI A1 a domain (PDIa) (Homo sapiens, UniProt P07237).
T1 construct: made in house; host or cells: Escherichia coli BL21-Gold (DE3)
Description: Isothermal titration calorimetry (ITC) binding to PDIa. Particulars: 400 μM LOC14 into 40 μM oxidized PDIa, compared to reduced PDIa.

Another data set in a line: physchem. As to conditions: organic solvent or mixture.
The subject of another data set is PC12 mHTT^Q103 cells. As to the kind of experiment: Rescue of PC12 cells from mHTT^Q103 induced cell death (Alamar blue viability). Format: cell-based. Particulars: Rattus norvegicus. In general terms: The colour change of resazurin is a common sign of viable cells or microbes.
Data set [2] is described as follows: Single-dose pharmacokinetic study (BBB penetration). Format: in vivo. Particulars: single-dose 20 mg/kg, intravenously or orally, mice. How it is done: LOC14 administered via (FIG. 17A) intravenous or (FIG. 17B) oral route to wild-type C57BL/6j mice at 20 mg/kg. The concentration of compound in the brain tissue and plasma is shown for each individual mouse (represented by dots). The horizontal lines represent the mean±SD (n=3).
Showing promising in vitro metabolic properties, LOC14 was tested in a single-dose pharmacokinetic (PK) study. This was a pilot study to evaluate the ability of LOC14 to traverse the blood-brain barrier (BBB). In this study, LOC14 was administered via two routes, intravenously (FIG. 17A) or orally (FIG. 17B), at a single-dose of 20 mg/kg to wild-type C57BL/6j mice.

Values after ≈ are worked out from the molar mass of the structure shown. Read-outs that look alike come from different tables or passages of the source.

T1 sequence (P07237 with tags, fused parts or gaps): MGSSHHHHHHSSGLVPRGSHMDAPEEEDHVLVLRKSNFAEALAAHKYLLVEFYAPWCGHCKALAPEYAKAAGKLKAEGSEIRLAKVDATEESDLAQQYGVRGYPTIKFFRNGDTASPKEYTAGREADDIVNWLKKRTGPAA

Take `O=C(C1CC1)N1CCN(Cn2sc3ccccc3c2=O)CC1` [LOC14, 2-((4-(cyclopropanecarbonyl)piperazin-1-yl)methyl)benzo[d]isothiazol-3(2H)-one]: in data set [1], the “binding affinity to oxidized PDIa” value is reported as “loss in binding affinity”. The solubility stood at 40 mg/mL (≈ 126 mM) in “physchem” (DMSO), 20 mg/mL (≈ 63 mM) in the data set “physchem” (EtOH), 40 mg/mL (≈ 126 mM) in the data set “physchem” (MeOH) and 80 mg/mL (≈ 252 mM) in the data set “physchem” (NMP). Besides, the EC50 is 500 nM with PC12 mHTT^Q103 cells (PC-12, 48 h, read-out: EC50, rescue of PC12 mHTT^Q103 cells) and 102 nM in the data set on PC12 mHTT^Q103 cells (PC-12, read-out: Cell Viability Assay EC50). Besides, the blood-brain barrier penetration result in data set [2] was “penetrated the BBB”. Also, the tolerability result in data set [2] is listed as “well tolerated”.

The term solubility denotes the dissolved amount per volume that the medium holds. As usually defined, the EC50 is the concentration at which the effect is half-maximal.
